The values that follow come from ChEMBL document CHEMBL1148845, “Chiral tetrahydroquinoline derivatives as potent anti-hyperalgesic agents in animal models of sustained inflammation and chronic neuropathic pain” (Bioorg Med Chem Lett, 2007).

A short description of data set [1]: Half life in rat at 1 mg/kg, iv or 3 mg/kg, po. In kind it is ADME, organism-based. The conditions noted are these: in vivo.
A short description of data set [2]: Half life in dog at 1 mg/kg, iv or 3 mg/kg, po. Particulars: in vivo. Type of data set: ADME, organism-based, Canis lupus familiaris.
Data set [3] is described as follows: Plasma clearance in dog at 1 mg/kg, iv or 3 mg/kg, po. In kind it is ADME, organism-based, Canis lupus familiaris.
The nature of data set [4]: Plasma clearance in rat at 1 mg/kg, iv or 3 mg/kg, po. In kind it is ADME, organism-based.
A short description of data set [5]: Oral bioavailability in dog at 3 mg/kg, po. Type of data set: ADME, organism-based, Canis lupus familiaris. The conditions noted are these: in vivo.
A further data set has as its target Glutamate NMDA receptor. Put plainly: Displacement of [3H]glycine from NMDA receptor in rat cerebral cortex membrane. Type of data set: cell membranes.
Data set [6] in a line: Oral bioavailability in rat at 3 mg/kg, po. Type of data set: ADME, organism-based. The conditions noted are these: in vivo.
For data set [7], the system named is Rattus norvegicus. Briefly: Analgesic effect in po dosed CCI rat model assessed as reduction of thermal hyperalgesia after 1 hr. Type of data set: functional.
The subject of data set [8] is Mus musculus. Briefly: Antinociceptive effect in po dosed mouse assessed as reduction of licking time in late phase by formalin test. Type of data set: functional.
The species entered for data set [9] is Rattus norvegicus. Briefly: Inhibition of windup in rat spinal cord at 10 uM. In kind it is functional, organism-based.
For data set [10], the system named is Mus musculus. Briefly: Antinociceptive effect in ip dosed mouse assessed as reduction of licking time in late phase administered before 30 mins of formalin administration. Particulars: 0.5 h.
For data set [11], the system named is Mus musculus. Briefly: Antinociceptive effect in ip dosed mouse assessed as reduction of licking time in early phase administered before 30 mins of formalin administration. Particulars: 0.5 h.
The subject of data set [12] is Mus musculus. Put plainly: Antinociceptive effect in mouse assessed as reduction of licking time in late phase administered at 0.1 mg/kg, ip before 10 mins of formalin administration. Type of data set: functional. Set-up: scale not given: the % may be the effect or the level left. Particulars: route intraperitoneal.
Data set [13] can be described thus: Oral bioavailability in rat. Type of data set: ADME, organism-based. Particulars: in vivo.

Molecules are shown by their SMILES. Calls of active or inactive are those of the source.

`O=C(/C=C1\CC(C(=O)[O-])Nc2cc(Cl)ccc21)Nc1ccccc1.[Na+]` (stereo unspecified): the half-life is 84 min in data set [1] and 144 min in [2]. In addition, the results for the clearance in data set [3] and in data set [4] were 1.4 mL/min/kg and 3.5 mL/min/kg, respectively. Moreover, the bioavailability in [5] was determined as 64%; in [6], 85%. In addition, the “Log Ki” value at Glutamate NMDA receptor is on record as -7.42.
Regarding `O=C([O-])C1C/C(=C2/NC(=O)N(c3ccccc3)C2=O)c2ccc(Cl)cc2N1.[Na+]` (stereo unspecified), the “Log Ki” value at Glutamate NMDA receptor is given as -7.8.
On to `O=C([O-])[C@H]1C/C(=C2/CCN(c3ccccc3)C2=O)c2ccc(Cl)cc2N1.[Na+]`, for which the median effective dose (ED50) in the data set on Rattus norvegicus [7] and in the data set with Mus musculus [8] was 0.14 mg/kg each time. Also, in the data set filed under Rattus norvegicus [9], the result was Active.
In the case of `O=C([O-])c1[nH]c2cc(Cl)cc(Cl)c2c1/C=C1\CCN(c2ccccc2)C1=O.[Na+]`, the ED50 was determined as 2.95 mg/kg in the data set with Rattus norvegicus [7] and 0.6 mg/kg in the data set on Mus musculus [8]. For the same compound, on Glutamate NMDA receptor, the “Log Ki” value is recorded as -7.56.
As for `CN1CC[C@]23c4c5ccc(O)c4O[C@H]2[C@@H](O)C=C[C@H]3[C@H]1C5` [MORPHINE], the figures for the median effective dose (ED50) with Mus musculus [10] and in the data set on Mus musculus [11] were 0.56 mg/kg and 0.73 mg/kg, respectively.
As for `C[C@]12N[C@H](Cc3ccccc31)c1ccccc12` [DIZOCILPINE], in the data set on Mus musculus [8], the median effective dose (ED50) turned out to be 0.1 mg/kg. Moreover, the Activity in the data set on Mus musculus [12] amounted to 50%.
`O=C([O-])C1C/C(=C2/CC(=O)N(c3ccccc3)C2=O)c2ccc(Cl)cc2N1.[Na+]` (stereo unspecified): the “Log Ki” value at Glutamate NMDA receptor was -5.64.
As to `O=C([O-])C1C/C(=C2/CCN(c3ccccc3)C2=O)c2ccc(Cl)cc2N1.[Na+]` (stereo unspecified), the bioavailability in data set [13] came out at 76%.
As for `O=C([O-])C1C/C(=C2/CCCN(c3ccccc3)C2=O)c2ccc(Cl)cc2N1.[Na+]` (stereo unspecified), the “Log Ki” value at Glutamate NMDA receptor is listed as -5.71.

A word on the half-life: it is the time needed for the level to fall by half in the phase considered. Broadly, the bioavailability is dose-corrected exposure relative to a reference, in per cent. Broadly, the ED50 is the dose at which the effect has come halfway, by size or by number of responders.
